In US20240148940A1, “METHODS OF INHIBITION” (Queensland Eye Institute Foundation, priority 2022, published 2024):

Legend:
[1] = system: isolated porcine aortic adventitia; assay: Biaxial tensile measurements on isolated porcine aortic adventitia; settings: 25% stretch, UV-A 365 nm, 45 mW/cm^2, 10 minutes, n=23
Procedure: Twenty-three porcine aortas from the abdominal region were used in this study and processed initially as described in Example 1. Irradiation was conducted in the presence of a solution of riboflavin 5′-phosphate monosodium salt in saline in accordance with the procedure of Example 1. The isolated adventitial specimens were then cut into squares of 14 mm×14 mm, and thickness was measured with a digital caliper at three spots and averaged. The tensile properties were measured and recorded biaxially in the CS BioTester™ 5000 biotesting system (CellScale Biomaterials Testing, Waterloo, ON, Canada), equipped with two 2.5-N load cells, using a set of four BioRakes™ that consisted each of 5 tungsten tines spaced evenly. All samples were submerged in a temperature-controlled bath containing PBS at 37° C., and tested by stretching the gripped area (11 mm×11 mm) to 25% of total stretch, at a rate of 1%/s. The samples were preconditioned for 10 cycles, and the tenth cycle was used for subsequent analysis. Assuming that tissue was incompressible and had negligible shear components, the Cauchy stress (σ) was determined with the equations: […]
In these equations, F is the measured load, λ is the stretch, X is the initial length, T is the averaged initial thickness of the tissue sample. […] The stretch was calculated as follows: […]
These characteristics were evaluated for 25% stretch (strain). […]

[2] = system: isolated porcine aortic adventitia; assay: Uniaxial tensile measurements on isolated porcine aortic adventitia, irradiated vs non-irradiated; settings: 0.1% w/v in saline, UV-A 365 nm, 45 mW/cm^2, 10 minutes, both sides, n=30
Procedure: Twenty-five porcine aortas from the abdominal region were used in this study, sourced from an abattoir. The aorta specimens were processed by first removing the extraneous adipose and loose connective tissue debris from the external surface using surgical scissors. One cut was then performed along the longitudinal axis of each aortic tube, in order to obtain flat rectangular sheets. A surgical scalpel was used to make an initial cornerwise-interstitial incision between adventitia and media layers, and the adventitial layer was carefully dissected and peeled off by hand. […] The irradiance at the exposure site was monitored with the radiometer Dymax ACCU-CAL 50 (Dymax Corp., Torrington, CT, USA). […]
An Instron Materials Testing System Model #5943 (Instron, Norwood, MA, USA), equipped with a 50-N load cell, was used to measure uniaxially the tensile properties of isolated adventitia specimens (n=30), prior to and after irradiation. […] Strips (1 cm×3 cm) were cut, and their thickness and width were measured with a digital caliper (Digimax Global Inc., Toronto, Canada). […] The values for Young's moduli were computed from the recorded stress-strain plots in the linear region.
Irradiation was conducted in the presence of a solution of riboflavin 5′-phosphate monosodium salt in saline in accordance with the procedure of Example 1. The results were expressed as mean values±standard error of the mean. […]

[3] = system: isolated porcine aortic adventitia subjected to collagenase; assay: Uniaxial tensile testing of enzymatically degraded (collagenolysis) isolated porcine aortic adventitia; settings: collagenase 20 U/mL, 8 or 20 hours, UV-A 365 nm, 45 mW/cm^2, 10 minutes
Procedure: An Instron Materials Testing System Model #5943 (Instron, Norwood, MA, USA), equipped with a 50-N load cell, was used to measure uniaxially the tensile properties of isolated adventitia specimens (n=30), prior to and after irradiation. Irradiation was conducted in the presence of a solution of riboflavin 5′-phosphate monosodium salt in saline in accordance with the procedure of Example 1. Before measurements, each specimen was soaked in phosphate buffered saline (PBS) for at least 1 hour at room temperature. Strips (1 cm×3 cm) were cut, and their thickness and width were measured with a digital caliper (Digimax Global Inc., Toronto, Canada). Thirty measurements for specimens in each set of samples (non-irradiated and irradiated) were carried out along the longitudinal direction at a set gauge distance of 16 mm and a speed of 10 mm/min. The values for Young's moduli were computed from the recorded stress-strain plots in the linear region.
Thirty porcine adventitial specimens were isolated and exposed to UV-A radiation as described in Example 1. Irradiation was conducted in the presence of a solution of riboflavin 5′-phosphate monosodium salt in saline in accordance with the procedure of Example 1. Non-irradiated and irradiated adventitial specimens, as sets of 10 pieces each (5 cm×3 cm), were soaked in saline for 1 hour with gentle shaking, and then placed into the wells of 6-well plates. A solution containing 20 U/mL (˜0.08 mg/mL) collagenase was prepared in Tris buffer (0.05 M, pH 7.4), which also contained calcium chloride (10 mM) and sodium azide (0.02%). To each well, 5 mL of this solution was added to cover the samples. The well plates were placed in an orbital shaker and shaken at 160 rpm for either 8 hours or 20 hours at 37° C. […]
The three sets of adventitial specimens designated as (1), (2) and (3) in Example 5 were evaluated by uniaxial tensile testing following the procedure described in Example 2. […]

## Cc1cc2nc3c(=O)[nH]c(=O)nc-3n(C[C@H](O)[C@H](O)[C@H](O)COP(=O)([O-])O)c2cc1C.[Na+] [riboflavin 5′-phosphate monosodium salt]
[1]; circumferential (p=1.4×10^−3) and longitudinal (p=5.3×10^−4)
  Cauchy stress, difference between non-irradiated and irradiated specimens: high level of statistical significance
[1]; circumferential (p=6.8×10^−5) and longitudinal (p=7.1×10^−5)
  tangent modulus (stiffness), difference between non-irradiated and irradiated specimens: high level of statistical significance
[2]; p=0.0012
  Young's modulus (stiffness), difference between non-irradiated and irradiated specimens: statistically significant
[2]; p=0.0015
  ultimate stress (maximum load at the time of rupture), difference between non-irradiated and irradiated specimens: statistically significant
[3]; 37° C., n=30
  Young's modulus (stiffness) vs degradation time, samples first irradiated then subjected to collagenolysis (I/D) compared with D and D/I: highest
  ultimate stress (strength) vs degradation time, samples first irradiated then subjected to collagenolysis (I/D) compared with D and D/I: highest
[3]; p~0.2-0.5
  statistical differences between degraded non-irradiated samples (D) and those irradiated after degradation (D/I), modulus and stress: low significance
